Measurements as given in PMC10232258 (Journal of Antimicrobial Chemotherapy, 2023).
Each block holds one compound with its values, some of them ahead of it.

What was measured:
Population PK analysis = format: in vivo, human; conditions: for CLTFV: full model
[1] = average of five clinical studies (Table S4)
HIV-1 = conditions: background statement; cited from earlier work
[2] = cited from earlier work
[3] = ref Yager et al. 50; cited from earlier work
[4] = full final model, bootstrap median

- CLTFV (Population PK analysis; 80-year-olds): 36 L/h
- CLTFV lower than in normal kidney function (Population PK analysis; CLCR of 20 mL/min (stage 3 CKD) versus normal kidney function): 57%
- CLTFV, apparent clearance of tenofovir (Population PK analysis; base model, ka fixed to 2 h−1): 39.9 L/h
- θAge, age effect on CLTFV (Population PK analysis; [4]): −0.242
- θBlack or Hispano American, ethnicity effect on CLTFV (Population PK analysis; [4]): 0.120
- θCobicistat, effect of cobicistat on F (Population PK analysis; [4]): 1.16
- θPotent P-gp inhibitors, effect on CLTFV (Population PK analysis; [4]): −0.119
- CLTFV, apparent clearance of tenofovir (Population PK analysis; full final model, bootstrap median (n = 2000 samples)): 42.3 L/h
- θBlack or Hispano American, ethnicity effect on CLTFV (Population PK analysis; full final model, estimate): 0.119
- θPotent P-gp inhibitors, effect on CLTFV (Population PK analysis; full final model, estimate): −0.121
- θAge, age effect on CLTFV (Population PK analysis; full final model, estimate, Agemedian = 51 years): −0.244
- CLTFV, apparent clearance of tenofovir (Population PK analysis; full final model, estimate, CLCR-ref 100 mL/min, median age 51 years): 42.2 L/h
- VTFV, apparent volume of distribution of tenofovir (Population PK analysis; full final model, estimate, PLWH after oral TAF): 2390 L
- Tmax (Population PK analysis; human, plasma, oral): 2.4 h
- half-life (Population PK analysis; human, plasma, oral): 46 h
- Vd (Population PK analysis; human, plasma, oral, VTFV, apparent volume of distribution of tenofovir, full final model, bootstrap median (n = 2000 samples)): 2400 L
- CLTFV (Population PK analysis; individuals with CLCR of 20 mL/min (stage 3 CKD)): 18 L/h
- CLTFV (Population PK analysis; normal kidney function): 42 L/h
- CLTFV (Population PK analysis; younger PLWH, median age 51 years): 42 L/h
SMILES: C[C@H](Cn1cnc2c(N)ncnc21)OCP(=O)(O)O [tenofovir]

SMILES: CC(C)OC(=O)[C@H](C)N[P@](=O)(CO[C@H](C)Cn1cnc2c(N)ncnc21)Oc1ccccc1 [tenofovir alafenamide]
- Higher intracellular exposure in tenofovir diphosphate, TAF versus TDF [1]: six-fold
- Potency relative to tenofovir disoproxil fumarate (HIV-1): 10 times
- Lower plasma levels of tenofovir under standard TAF versus TDF dosage [2]: 90%
- Increase of relative bioavailability F (absorption of TAF) by cobicistat (Population PK analysis; TAF 10 mg with cobicistat versus 25 mg alone (F = 1)): 115%
- Tenofovir diphosphate levels, TAF once every 3 days versus TDF every day [3]: 2.6 times
